Measurements from US7109174B2, “Anticonvulsant derivatives useful for preventing the development of type II diabetes mellitus and syndrome X” (Ortho-McNeil Pharmaceutical, Inc., priority 2000, dated 2006).

How the values were obtained:
[1] = tested on: Female db/db mice; assay: Oral glucose tolerance test (fasted) in female db/db mice after 11 days oral dosing; type: in vivo; details: for Oral Glucose Tolerance Test (fasted) Plasma Glucose: ± sem
Procedure: Female db/db mice (C57BLK S/J-m^+/^+ Lepr^db Jackson Labs, Bar Harbor, Me.), 7–8 weeks of age, were housed four per cage in solid-bottomed shoe box cages. Room temperature was maintained at 68–72° F. and humidity at 50–65%. Room lighting was on a 12-hour light/12-hour dark cycle. The mice were maintained on NIH Rat and Mouse/Auto 6F reduced fat diet #5K52 (PMI Nutrition Int'l Inc.). Food and water were supplied ad libitum.
Test compound and vehicle were dosed orally and prepared as suspensions in 0.5% hydroxypropylmethylcellulose (Dow Chemical, Midland, Mich.). The dosing volume was 10 mL/kg of body weight.
Different groups of female db/db mice (7–8/group) were orally gavaged daily for 11 days with either 0.5% methylcellulose in dH2O (vehicle), topiramate at 30 or 100 mg/kg/day or 2,3:4,5-bis-O-(1-methylethylidene)-β-L-fructopyranose sulfamate (hereinafter referred to as Compound V) at 30 or 100 mg/kg/day. On day 10, the animals were fasted for 20 hours before being tested for oral glucose tolerance (OGT). On day 11, four hours after the final dose for each group, an oral glucose tolerance test (OGTT) was performed by oral glucose administration of 2 g/kg. Animals were bled through tail clip at 0 (before glucose), 30, 60 and 120 min after glucose challenge. The blood samples were collected into heparinized CB microvettes and then put on ice. The plasma samples will be assayed for plasma glucose determination by using SIGMA DIAGNOSTICS Trinder reagent (Sigma, St. Louis, Mo.). Statistical analysis was performed using the program Instat (Graphpad, Monrovia, Calif.) and performing one-way ANOVA with a Dunnett's multiple comparison test.
Following the above described procedure, the effect of topiramate and compound V on oral glucose tolerance in female db/db mice, 7 mice/group, was determined, with results as listed in Table 9. The abbreviation N represents the number of animals per study group.

[2] = tested on: db/db mice (Homozygous Diabetic Mice); assay: Plasma glucose, triglycerides and body weight in female diabetic db/db mice, 11 days oral dosage; type: in vivo; details: for Plasma Glucose % Change / Plasma Triglycerides % Change / Change in Body Weight / Plasma Triglycerides Plasma Conc. / Plasma Glucose Plasma Conc.: 11 days; for Plasma Glucose % Change / Plasma Triglycerides % Change: versus vehicle; for Change in Body Weight / Plasma Triglycerides Plasma Conc. / Plasma Glucose Plasma Conc.: ± SEM
Procedure: Six to seven week old female C57 BLK SIJ-m^+/^+ Lepr^db mice (db/db) and heterozygous littermates were purchased from The Jackson Laboratory (Bar Harbor, Me.). Upon arrival the mice were quarantined for 5 days and housed in pairs in shoe-box cages containing ALPHA-dri® bedding (Shepherd Speciality Papers, Inc., Kalamazoo, Mich.). The mice were maintained at an ambient temperature of 21 to 23° C. on a 12 hour-12 hour light-dark schedule and given access to water and food ad libitum. The diet was comprised of NIH (National Institutes of Health) Rat and Mouse/Auto 6F Reduced Fat Diet No. 5K52 (PMI Nutrition International Inc., Brentwood, Mo.).
The vehicle, used as a reference and for test compounds, was 0.5% methylcellulose dissolved in water. The compounds were either fully dissolved or uniformly suspended in the vehicle when administered to the mice.
The db/db mice were randomly separated into five groups of eight, as were the heterozygous littermates. The groups were as follows: one vehicle control group and four groups that each received one of four doses of topiramate (TPM) (10, 30, 100, or 300 mg/kg, respectively). Topiramate or vehicle was administered orally by gavage once a day during the 8th hour of the light portion of the light-dark cycle.
Between 18 and 24 hours after the last dose was administered, the mice were anesthetized with CO2/O2 (70:30) and blood from the retro-orbital sinus puncture was collected into 2 mL heparinized snap-top polypropylene tubes, then placed in ice.
Plasma was separated from blood cells by centrifugation (15 minutes at 1600 g). For samples not assayed immediately, the plasma was transferred into 96-well plates and frozen at −70° C.
Glucose and triglycerides were assayed using standard procedures for blood clinical laboratories. Specifically, the samples were analyzed using an automated Hitachi 717 autoanalyzer (Boehringer Mannheim/Hitachi 717 Autoanalyzer, Boehringer Mannheim Laboratory Systems Division, Indianapolis, Ind.). A statistical analysis of data for the drug-treated groups compared to data for the vehicle group was performed using the one-way analysis of variance (ANOVA) with Dunnett's Multiple Comparisons test.
Following the procedure described above, the effect of topiramate on plasma glucose and triglyceride levels was determined for female diabetic db/db mice and littermates, following 11 days oral dosage, with results as listed in Table 3 and 4. Body weights are in Table 5. The abbreviation N represents the number of animals per study group.

[3] = 100 mg/kg oral once a day, P < 0.01
[4] = 300 mg/kg oral once a day, P < 0.01

`CC1(C)O[C@@H]2[C@@H](CO[C@@]3(COS(N)(=O)=O)OC(C)(C)O[C@@H]23)O1` [Topiramate, 2,3:4,5-bis-O-(1-methylethylidene)-β-D-fructopyranose sulfamate] was tested, and the Oral Glucose Tolerance Test (fasted) Plasma Glucose ([1]; 30 mg/kg/day, 0 min (before glucose 2 g/kg)) was 188 ± 16.7 mg/dL, the Oral Glucose Tolerance Test (fasted) Plasma Glucose ([1]; 30 mg/kg/day, 30 min after glucose 2 g/kg) was 401 ± 68.4 mg/dL and the Oral Glucose Tolerance Test (fasted) Plasma Glucose ([1]; 30 mg/kg/day, 60 min after glucose 2 g/kg) was 295 ± 31.5 mg/dL. For the same molecule, the Oral Glucose Tolerance Test (fasted) Plasma Glucose ([1]; 30 mg/kg/day, 120 min after glucose 2 g/kg) was 124 ± 20 mg/dL, the Oral Glucose Tolerance Test (fasted) Plasma Glucose ([1]; 100 mg/kg/day, 0 min (before glucose 2 g/kg)) was 160 ± 12.8 mg/dL and the Oral Glucose Tolerance Test (fasted) Plasma Glucose ([1]; 100 mg/kg/day, 30 min after glucose 2 g/kg) was 454 ± 38.5 mg/dL. The Oral Glucose Tolerance Test (fasted) Plasma Glucose ([1]; 100 mg/kg/day, 60 min after glucose 2 g/kg) was 271 ± 52.6 mg/dL, the Oral Glucose Tolerance Test (fasted) Plasma Glucose ([1]; 100 mg/kg/day, 120 min after glucose 2 g/kg) was 184 ± 32.3 mg/dL and the “elevated blood glucose levels induced by oral glucose challenge” value ([1]; 30 or 100 mg/kg/day) was “suppressed”. The fasting glucose levels ([1]; 30 or 100 mg/kg/day) was “decreased”, the “Plasma Glucose % Change” value ([2]; 10 mg/kg oral once a day) was −27.4% and the “Plasma Triglycerides % Change” value ([2]; 10 mg/kg oral once a day) was −18.9%. For the same molecule, the “Change in Body Weight” value ([2]; 10 mg/kg oral once a day) was 1.7 ± 0.9 g, the “Plasma Triglycerides Plasma Conc.” value ([2]; 10 mg/kg oral once a day) was 277 ± 30 mg/dL and the “Plasma Glucose Plasma Conc.” value ([2]; 10 mg/kg oral once a day, P < 0.05) was 382 ± 46 mg/dL. The “decrease in blood glucose vs. control” value ([2]; 10 mg/kg/day, P<0.05) was 27%, the “Plasma Glucose % Change” value ([2]; 30 mg/kg oral once a day) was −34.6% and the “Plasma Triglycerides % Change” value ([2]; 30 mg/kg oral once a day) was −11.2%. The “Change in Body Weight” value ([2]; 30 mg/kg oral once a day) was 2.6 ± 1.0 g, the “Plasma Triglycerides Plasma Conc.” value ([2]; 30 mg/kg oral once a day) was 303 ± 29 mg/dL and the “Plasma Glucose Plasma Conc.” value ([2]; 30 mg/kg oral once a day, P < 0.01) was 344 ± 31 mg/dL. The “decrease in blood glucose vs. control” value ([2]; 30 mg/kg/day, P<0.01) was 35%, the “Plasma Glucose % Change” value ([2]; 100 mg/kg oral once a day) was −36.6% and the “Plasma Triglycerides % Change” value ([2]; 100 mg/kg oral once a day) was −33.7%. For the same molecule, the “Change in Body Weight” value ([2]; 100 mg/kg oral once a day) was 1.5 ± 0.7 g, the “Plasma Glucose Plasma Conc.” value [2, 3] was 333 ± 42 mg/dL and the “Plasma Triglycerides Plasma Conc.” value [2, 3] was 227 ± 15 mg/dL. The “decrease in blood glucose vs. control” value ([2]; 100 mg/kg/day, P<0.01) was 37%, the “Plasma Glucose % Change” value ([2]; 300 mg/kg oral once a day) was −60.5% and the “Plasma Triglycerides % Change” value ([2]; 300 mg/kg oral once a day) was −41.7%. For the same molecule, the “Change in Body Weight” value ([2]; 300 mg/kg oral once a day) was 0.7 ± 2.4 g, the “Plasma Glucose Plasma Conc.” value [2, 4] was 207 ± 41 mg/dL and the “Plasma Triglycerides Plasma Conc.” value [2, 4] was 199 ± 16 mg/dL. For the same molecule, the “decrease in blood glucose vs. control” value ([2]; 300 mg/kg/day, P<0.01) was 61% and the “decrease in plasma triglyceride levels versus diabetic controls” value ([2]; 100 and 300 mg/kd/day, P<0.01) was “up to 42%”.
